Test results from ChEMBL document CHEMBL1201862, “PubChem BioAssay data set” (2004).
Activity calls are given as the source filed them.

What was measured:
[1] = Luminescence-based counterscreen assay for KLF5 inhibitors: dose response cell-based high throughput screening assay to identify cytotoxic compounds using the IEC-6 intestinal epithelial cell line. [Related pubchem assays: 1700 (Primary screen.), 1834 (Confirmation screen.), 1858 (Summary AID.), 1905 (Counterscreen.)]; type: functional
[2] = alpha-synuclein stem-loop luciferase translation blockers – H4 neuroglioma cells, luminescence, confirmation (AID 1988); type: functional, cell-based
[3] = blockers of bursicon-stimulated LGR2 cAMP reporter – cell-based, HEK293, CRE-luciferase reporter, cherry pick, set 2, dose response (AID 743343); type: functional;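 also: transfected cells were stimulated with diluted bursicon conditioned medium after compound addition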
[4] = Luminescence Cell-Based Dose Confirmation HTS to Identify Inhibitors of Platelet Dense Granule Release. [Related pubchem assays: 1663 (Primary HTS), 1678 (Summary of Project)]; type: functional
[5] = Luminescence Cell-Based Dose Response HTS to Identify Inhibitors of 5'UTR Stem-Loop Driven Prion Protein mRNA Translation in H4 Neuroglioblastoma Cells. [Related pubchem assays: 1827 (Project Summary), 1813 (Primary HTS)]; type: functional
[6] = blockade of melanocortin 4 receptor signaling – cell-based, plate reader, cherry pick, counter-screen for LGR2 antagonist project, dose response (AID 743444); type: functional;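 also: transfected HEK 293 cells stimulated with alpha-MSH peptide; potency of inhibitors of the alpha-MSH evoked signal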
[7] = biological target: Luciferin 4-monooxygenase (Photinus pyralis, UniProt P08659); test: inhibition of purified Photinus pyralis luciferase – biochemical, luminescence, dose response (AID 1891)
Sequence of Luciferin 4-monooxygenase (P08659 whole entry): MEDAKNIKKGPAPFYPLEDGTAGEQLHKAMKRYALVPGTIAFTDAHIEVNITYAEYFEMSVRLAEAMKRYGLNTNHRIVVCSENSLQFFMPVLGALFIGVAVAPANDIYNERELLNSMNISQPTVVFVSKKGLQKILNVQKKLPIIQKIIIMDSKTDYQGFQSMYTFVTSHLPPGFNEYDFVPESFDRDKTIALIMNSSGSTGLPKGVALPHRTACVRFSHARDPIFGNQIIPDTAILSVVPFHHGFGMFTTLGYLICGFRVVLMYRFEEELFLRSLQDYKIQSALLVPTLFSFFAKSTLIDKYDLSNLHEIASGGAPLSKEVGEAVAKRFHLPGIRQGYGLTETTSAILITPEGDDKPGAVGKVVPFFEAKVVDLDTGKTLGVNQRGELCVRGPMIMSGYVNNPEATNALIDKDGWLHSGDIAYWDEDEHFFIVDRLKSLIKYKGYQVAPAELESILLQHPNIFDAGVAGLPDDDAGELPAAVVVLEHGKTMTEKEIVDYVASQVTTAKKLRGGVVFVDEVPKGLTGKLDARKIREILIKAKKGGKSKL

[8] = viability loss in HEK293 cells – cell-based, plate reader, cherry-picked samples, cytotoxicity control, dose response (AID 743446); type: functional
[9] = biological target: NS3 (Hepatitis C virus, UniProt A3EZJ3); test: PubChem AID 2173; set-up: species or system Hepacivirus hominis
Sequence of NS3 (A3EZJ3 whole entry): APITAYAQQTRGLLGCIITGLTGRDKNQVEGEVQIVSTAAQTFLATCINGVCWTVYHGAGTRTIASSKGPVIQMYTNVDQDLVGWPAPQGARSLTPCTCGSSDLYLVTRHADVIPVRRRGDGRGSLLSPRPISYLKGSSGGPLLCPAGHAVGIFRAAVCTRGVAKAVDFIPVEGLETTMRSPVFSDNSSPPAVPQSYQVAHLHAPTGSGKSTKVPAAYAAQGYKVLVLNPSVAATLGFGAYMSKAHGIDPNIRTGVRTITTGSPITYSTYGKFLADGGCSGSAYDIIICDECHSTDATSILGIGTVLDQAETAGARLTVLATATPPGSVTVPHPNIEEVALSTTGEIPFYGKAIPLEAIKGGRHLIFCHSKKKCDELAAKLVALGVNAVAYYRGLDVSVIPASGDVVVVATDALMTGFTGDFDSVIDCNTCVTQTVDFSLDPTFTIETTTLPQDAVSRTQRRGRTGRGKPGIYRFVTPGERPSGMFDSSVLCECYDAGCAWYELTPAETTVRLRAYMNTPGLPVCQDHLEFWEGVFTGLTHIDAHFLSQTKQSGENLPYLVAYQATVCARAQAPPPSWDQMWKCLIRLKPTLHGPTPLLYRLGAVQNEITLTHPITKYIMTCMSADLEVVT

[10] = biological target: Protein-tyrosine kinase 2-beta (Homo sapiens, UniProt Q14289);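 also: potency of inhibitors of PYK2 kinase phosphorylation of poly-GT substrate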
Sequence of Protein-tyrosine kinase 2-beta (Q14289 whole entry): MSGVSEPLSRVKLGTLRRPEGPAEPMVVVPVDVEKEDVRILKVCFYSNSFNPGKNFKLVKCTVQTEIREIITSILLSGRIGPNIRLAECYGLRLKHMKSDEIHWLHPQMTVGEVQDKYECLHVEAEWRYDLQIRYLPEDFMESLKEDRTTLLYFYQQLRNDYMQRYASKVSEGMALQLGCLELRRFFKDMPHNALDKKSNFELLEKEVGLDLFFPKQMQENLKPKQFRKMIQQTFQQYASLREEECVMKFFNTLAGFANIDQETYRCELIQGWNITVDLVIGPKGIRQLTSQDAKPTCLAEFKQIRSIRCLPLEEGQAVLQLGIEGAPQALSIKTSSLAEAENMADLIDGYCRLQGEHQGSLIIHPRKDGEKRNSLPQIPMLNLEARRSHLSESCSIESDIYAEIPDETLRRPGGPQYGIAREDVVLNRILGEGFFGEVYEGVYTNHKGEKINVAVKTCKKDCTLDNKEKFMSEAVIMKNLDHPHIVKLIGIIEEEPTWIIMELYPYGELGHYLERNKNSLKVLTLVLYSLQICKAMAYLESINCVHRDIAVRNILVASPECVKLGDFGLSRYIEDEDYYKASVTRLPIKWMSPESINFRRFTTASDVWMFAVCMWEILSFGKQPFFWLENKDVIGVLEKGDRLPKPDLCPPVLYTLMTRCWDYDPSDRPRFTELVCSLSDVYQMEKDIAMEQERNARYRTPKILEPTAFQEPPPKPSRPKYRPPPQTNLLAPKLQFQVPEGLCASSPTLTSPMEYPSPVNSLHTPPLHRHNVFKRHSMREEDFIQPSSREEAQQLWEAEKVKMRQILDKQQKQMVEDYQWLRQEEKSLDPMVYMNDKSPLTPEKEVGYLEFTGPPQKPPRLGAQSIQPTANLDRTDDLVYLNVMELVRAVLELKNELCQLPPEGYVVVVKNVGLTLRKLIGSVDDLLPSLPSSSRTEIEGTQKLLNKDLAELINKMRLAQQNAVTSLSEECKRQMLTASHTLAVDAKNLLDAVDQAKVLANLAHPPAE

[11] = biological target: Dual specificity tyrosine-phosphorylation-regulated kinase 1A (Rattus norvegicus, UniProt Q63470); type: biochemical, Homo sapiens
[12] = antiviral protection against BTV-induced cell death – arbovirus, BSR cells, confirmation (AID 1250); type: functional;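 also: protection from viral cytopathic effect measured as cell viability by ATP luminescence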
[13] = toxicity toward HepG2 liver cells – cell-based, plate reader, cherry-pick, antagonist series, cytotoxicity control, dose response (AID 743416); type: functional
[14] = A549 cell cytotoxicity, dose response, cytotoxicity control, plate reader, cherry-pick, antagonist series (AID 743412); type: functional, cell-based
[15] = biological target: Aryl hydrocarbon receptor (Homo sapiens, UniProt P35869); test: Luminescence-based cell-based high throughput dose response assay for activators of the Aryl Hydrocarbon Receptor (AHR). [Related pubchem assays: 2796 (Primary screen (AHR activators in singlicate)), 2845 (Confirmation screen (AHR activators in triplicate)), 434939 (Counterscreen (PXR activators in triplicate)), 2804 (Summary (AHR activators))]; type: ADME
Sequence of Aryl hydrocarbon receptor (P35869 whole entry): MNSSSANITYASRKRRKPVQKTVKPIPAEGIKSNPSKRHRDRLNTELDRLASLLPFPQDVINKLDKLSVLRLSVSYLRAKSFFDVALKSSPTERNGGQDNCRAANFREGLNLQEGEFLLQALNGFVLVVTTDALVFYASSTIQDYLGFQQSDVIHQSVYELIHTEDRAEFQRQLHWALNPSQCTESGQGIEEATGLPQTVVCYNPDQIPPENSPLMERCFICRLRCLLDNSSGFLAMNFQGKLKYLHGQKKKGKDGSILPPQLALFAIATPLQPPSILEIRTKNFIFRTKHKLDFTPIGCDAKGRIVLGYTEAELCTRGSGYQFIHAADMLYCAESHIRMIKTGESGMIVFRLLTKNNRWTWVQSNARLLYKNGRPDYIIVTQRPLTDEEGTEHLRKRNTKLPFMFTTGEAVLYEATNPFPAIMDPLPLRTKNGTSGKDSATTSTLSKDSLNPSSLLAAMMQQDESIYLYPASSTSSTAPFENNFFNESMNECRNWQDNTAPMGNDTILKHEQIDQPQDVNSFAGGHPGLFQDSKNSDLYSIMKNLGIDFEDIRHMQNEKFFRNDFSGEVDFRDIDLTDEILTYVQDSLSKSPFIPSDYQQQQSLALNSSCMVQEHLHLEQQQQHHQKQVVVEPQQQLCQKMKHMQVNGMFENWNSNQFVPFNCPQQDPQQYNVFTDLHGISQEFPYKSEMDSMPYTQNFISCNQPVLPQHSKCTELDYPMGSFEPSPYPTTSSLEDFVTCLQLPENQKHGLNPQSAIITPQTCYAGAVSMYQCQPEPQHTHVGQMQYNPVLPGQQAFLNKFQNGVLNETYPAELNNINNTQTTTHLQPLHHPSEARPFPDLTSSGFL

[16] = biological target: T1, Low molecular weight phosphotyrosine protein phosphatase (Homo sapiens, UniProt P24666); type: functional; details: read-out: IC50_Mean
T1 sequence (P24666 whole entry): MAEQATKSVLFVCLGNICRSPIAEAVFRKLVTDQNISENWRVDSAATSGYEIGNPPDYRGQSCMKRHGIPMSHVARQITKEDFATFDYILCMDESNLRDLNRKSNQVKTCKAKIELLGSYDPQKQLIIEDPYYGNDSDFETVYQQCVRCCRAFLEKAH

[17] = biological target: T2, Heat shock factor protein 1 (Mus musculus, UniProt P38532); test: decrease of HSF1-responsive luciferase luminescence – cell-based, NIH3T3, dose retest, confirmation (AID 2382); type: functional;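 also: NIH3T3 fibroblasts with HSF1-driven luciferase reporter stressed by proteasome inhibitor MG132; luminescence from HSF1-driven luciferase expression after 8 hours of MG132 stress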
T2 sequence (P38532 whole entry): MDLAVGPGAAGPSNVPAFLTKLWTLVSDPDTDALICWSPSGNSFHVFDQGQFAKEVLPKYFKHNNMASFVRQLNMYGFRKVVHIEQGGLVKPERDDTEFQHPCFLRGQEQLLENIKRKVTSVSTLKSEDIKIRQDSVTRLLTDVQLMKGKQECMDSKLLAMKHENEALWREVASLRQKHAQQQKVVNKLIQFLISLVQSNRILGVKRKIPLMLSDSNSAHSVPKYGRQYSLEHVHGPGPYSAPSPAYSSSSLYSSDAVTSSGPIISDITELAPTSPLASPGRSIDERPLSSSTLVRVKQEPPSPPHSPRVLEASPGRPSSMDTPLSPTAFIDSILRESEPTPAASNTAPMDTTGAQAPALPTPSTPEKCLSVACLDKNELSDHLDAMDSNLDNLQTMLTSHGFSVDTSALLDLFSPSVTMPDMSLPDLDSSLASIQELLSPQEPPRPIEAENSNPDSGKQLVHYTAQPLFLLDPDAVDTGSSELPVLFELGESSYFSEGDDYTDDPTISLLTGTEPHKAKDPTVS

[18] = biological target: T1, Low molecular weight phosphotyrosine protein phosphatase; type: functional; details: read-out: IC50_Mean; remark: listed apart in the source
[19] = Luminescence Cell-Based Dose Confirmation HTS to Identify Inhibitors of Polyadenylation.; type: functional
[20] = biological target: Large T antigen (Simian virus 40, UniProt P03070); type: functional, Betapolyomavirus macacae;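 also: Confirmatory-stage PubChem screen for compounds that inhibit SV40 T antigen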
Sequence of Large T antigen (P03070 whole entry): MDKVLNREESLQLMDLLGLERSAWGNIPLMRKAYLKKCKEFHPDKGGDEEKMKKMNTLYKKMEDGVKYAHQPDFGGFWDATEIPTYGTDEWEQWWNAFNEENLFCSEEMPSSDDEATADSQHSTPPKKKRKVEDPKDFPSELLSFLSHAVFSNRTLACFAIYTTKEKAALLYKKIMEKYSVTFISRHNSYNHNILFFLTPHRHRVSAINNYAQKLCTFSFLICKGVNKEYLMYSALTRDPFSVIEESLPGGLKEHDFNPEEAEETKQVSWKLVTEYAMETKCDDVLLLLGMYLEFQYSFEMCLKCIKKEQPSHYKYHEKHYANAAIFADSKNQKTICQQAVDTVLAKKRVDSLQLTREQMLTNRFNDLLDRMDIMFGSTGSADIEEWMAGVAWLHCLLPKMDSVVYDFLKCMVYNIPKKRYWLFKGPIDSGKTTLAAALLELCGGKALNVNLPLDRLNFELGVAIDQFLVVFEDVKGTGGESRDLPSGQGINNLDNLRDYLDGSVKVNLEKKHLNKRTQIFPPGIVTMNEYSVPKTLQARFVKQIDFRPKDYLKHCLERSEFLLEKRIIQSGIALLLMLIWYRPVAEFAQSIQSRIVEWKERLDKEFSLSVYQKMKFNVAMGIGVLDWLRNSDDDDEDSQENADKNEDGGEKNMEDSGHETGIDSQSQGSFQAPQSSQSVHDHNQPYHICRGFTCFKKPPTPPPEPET

[21] = biological target: T3, Coagulation factor XII (Homo sapiens, UniProt P00748); type: functional;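 also: activated factor XIIa alpha cleaving a fluorogenic AMC peptide substrate; inhibitor potency from loss of enzyme activity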
T3 sequence (P00748 whole entry): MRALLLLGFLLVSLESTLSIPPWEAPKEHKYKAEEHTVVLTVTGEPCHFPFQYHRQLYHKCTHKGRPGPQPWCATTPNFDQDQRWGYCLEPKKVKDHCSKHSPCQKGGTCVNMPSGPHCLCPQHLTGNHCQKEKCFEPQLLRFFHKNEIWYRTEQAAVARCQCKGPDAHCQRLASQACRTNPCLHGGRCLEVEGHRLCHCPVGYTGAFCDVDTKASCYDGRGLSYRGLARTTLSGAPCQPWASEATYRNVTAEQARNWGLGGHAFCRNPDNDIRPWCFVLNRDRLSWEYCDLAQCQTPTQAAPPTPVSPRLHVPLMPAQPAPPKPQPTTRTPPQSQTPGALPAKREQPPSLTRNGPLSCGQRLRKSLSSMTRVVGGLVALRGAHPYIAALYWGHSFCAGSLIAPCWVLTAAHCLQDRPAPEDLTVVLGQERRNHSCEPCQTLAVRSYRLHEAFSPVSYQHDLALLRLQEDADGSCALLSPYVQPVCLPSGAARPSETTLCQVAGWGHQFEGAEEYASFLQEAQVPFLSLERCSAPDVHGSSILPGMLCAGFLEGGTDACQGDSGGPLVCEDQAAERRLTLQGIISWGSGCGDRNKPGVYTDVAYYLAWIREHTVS

For `O=C(Nc1cccc(O)c1)c1cc(-c2ccc3c(c2)OCO3)on1`, which IC50 [1] is on record?
Its IC50 is > 39.8 µM (not active).

And the EC50 [2]?
Its EC50 is 5.97 µM (active).

And the AC50 [3]?
The AC50 was 4.08 µM (active).

And the EC50 [4]?
The EC50 was 1.71 µM (active).

What about the EC50 [5] of the same compound?
The EC50 was > 120 µM (not active).

And the AC50 [6]?
The AC50 was 5.8 µM (active).

And the EC50 [7]?
Its EC50 is 0.349 µM (active).

What about the AC50 [8] of the same compound?
The AC50 was 6.57 µM (active).

With `CC(Oc1ccccc1)C(=O)Nc1oc(-c2ccco2)c(-c2ccco2)c1C#N` (centres undefined) as the compound, how does the IC50 [9] read?
The IC50 was 16.7 µM (not active).

With `c1ccc(-c2nccc(-c3ccc(-n4cnc5ccccc54)cc3)n2)cc1` as the compound, how does the IC50 [10] read?
Its IC50 is 2.64 µM (active).

Which results are given for `N#Cc1c(C(F)(F)F)cc(-c2cccc(Cl)c2)nc1O`?
AC50 [11]: 7.04 µM (active); IC50 [12]: 42.9 µM (active)

With `CN1CCN(c2ccc(NC(=O)c3sc4ccccc4c3Cl)cc2)CC1` as the compound, how does the AC50 [3] read?
The AC50 was 2.49 µM (active).

What about the AC50 [13] of the same compound?
The AC50 was 25.5 µM (active).

And the AC50 [6]?
The AC50 was 7.85 µM (active).

What about the AC50 [14] of the same compound?
The AC50 was 22 µM (active).

What about the EC50 [15] of the same compound?
The EC50 was > 0.377 µM (active).

What does the source list for `CCCCOc1ccc(C2C(C(=O)c3ccc(C)o3)=C(O)C(=O)N2Cc2ccco2)cc1` (centres undefined)?
IC50 [16]: > 80 µM (inactive); EC50 [17]: 46.6 µM (active); IC50 [9]: 3.26 µM (active); IC50 [18]: 54.5 µM (inactive)

Which EC50 [19] does the source give for `O=C(O)CN1C(=O)/C(=C/c2ccc(N3CCCCC3)o2)SC1=S` here?
The EC50 was 10.6 µM (active).

What about the IC50 [20] of the same compound?
Its IC50 is 31.7 µM (active).

And the IC50 [21]?
Its IC50 is > 50 µM (inactive).
